From patent publication US20050220726A1, “Use of sugar esters in cosmetic and/or pharmaceutical preparations” (priority 2003, published 2005) come the findings set out here.

Where only a bound is given, the exact number is not on record here.

The subject of experiment [1] is human leukaemic granulocytes. As to the kind of experiment: Anti-inflammatory activity: respiratory burst of granulocytes (zymosan, luminol). The note with it: + stimulation (zymosan), blank + stimulation = 100. It is filed as cell-based. The text has this:
In the course of cutaneous inflammation, leucocytes, such as the polymorphonuclear neutrophilic granulocytes (PMNs) for example, are stimulated by peptides, such as cytokines for example, to emit messenger substances, such as leucotriene for example, which are released from activated or necrotic cells in the dermis. These activated PMNs release not only pro-inflammatory cytokinins, leucotrienes and proteases, but also ROS, such as superoxides and hypochlorite anions for example, of which the function is to destroy penetrated pathogenic germs or fungi. This activity of the PMNs during the inflammation is known as so-called respiratory burst. To investigate to what extent the test extracts can prevent or reduce the respiratory burst, a cell line of human leukaemic granulocytes of these PMNs was incubated together with the test substances at 37° C. and 5% by vol. CO2. After the respiratory burst had been initiated by addition of a yeast extract (zymosan) to the cell solution, the release of superoxide anions was determined through their reaction with luminol.

Experiment [2] relates to bacterial collagenase (clostridium histolyticum). Kind of experiment: Collagenase inhibition on FITC-marked gelatin. The note with it: 60 mins. at 20° C. The format is biochemical. The protocol:
In the event of inflammation, skin proteases, for example collagenase, are released from the polymorphonuclear neutrophilic granulocytes or macrophages. A similar process takes place in the skin of elderly people on exposure to UV rays. As already mentioned, the proteases—also known as matrix metalloproteases (MMPs) through their content of central zinc ions—catalyze the fragmentation of connective tissue proteins. The test substances were tested for collagenase inhibition using bacterial collagenase (clostridium histolyticum) on gelatin marked with fluorochromium (FITC, Calbiochem) as a natural nutrient medium. The incubation time was 60 mins. at 20° C.; the hydrolysis of the substrate was monitored by fluorescence at 393 nm (excitation at 328 nm). The results are set out in Table 6 as the collagenase inhibition in %.

Another experiment has as its system human keratinocytes. Kind of experiment: Growth inhibition on human keratinocytes with EGF. The format is cell-based. The note with it: with EGF 10 ng/ml, 3 days, control = 100, control with EGF = 167. Here is the method: Increased proliferation and differentiation of keratinocytes of the hair matrix leads to improved longer hair growth. The following test was carried out to determine the potential of the sugar esters for inhibiting hair growth which is visibly reflected in a reduction in the proliferation of human keratinocyte culture in vitro.
To this end, human keratinocytes were cultivated in a standard cell culture medium containing foetal calf serum (FCS). After incubation for 1 day at 37° C./5% CO2, the growth medium was replaced by standard medium containing 10 ng/ml epidermal growth factor (EGF) and various concentrations of sugar esters dissolved in ethanol (1% by volume).
After incubation for three days, the number of living cells was determined by determining the cell protein content by the Bradford method [Bradford, M. M., A rapid and sensitive method for the quantitation of microgram quantities of protein utilizing the principle of protein-dye binding. Anal. Biochem. (1977), Vol. 72, pp. 248-254].
The results of Table 8 represent the values of triple determinations on two batches expressed in % against a control of cell culture medium without sugar ester.

Experiment [3] deals with human fibroblasts. As to the kind of experiment: Anti-stress effect on UV-A-damaged fibroblasts. The note with it: + UV-A 20 J/cm^2; for Cell proteins: blank sample = 100; for GSH/proteins: blank sample = 100, blank + UV-A = 65. The format is cell-based. The protocol:
UV-A radiation in the 320 to 400 nm range induces oxidative stress which is mainly produced by the activation of photosensitive biological components which in turn catalyze the formation of ROS-like superoxide anions, hydrogen peroxide and singlet oxygen atoms. The anti-UV-A effect was tested on fibroblasts because UV-A radiation penetrates through the dermis where it causes oxidative damage by lipoperoxidation of the cell membrane and a reduction in the content of reduced glutathione (GHS). To this end, human fibroblasts were cultivated as described in a), exposed to UV-A rays (20 J/cm^2) and the cell counts and the GSH content subsequently determined. The results are set out in Table 3, where they are expressed in %-rel. against a blank sample, and represent the results of 3 series of measurements with triple determination.

Experiment [4] has as its system human fibroblasts. Kind of experiment: Regenerative effect and detoxifying potential: GSH in human fibroblasts. It is filed as cell-based. The conditions noted are these: conc. 0.001 % w/v; 3 days in test solution; against blank sample = 100. Here is the method:
Glutathione (GSH) is a special protein which is produced by the cells for protection against oxidative stress and environmental poisons, more particularly against heavy metals. The three amino acids involved in the reduced form of GSH are linked to special cytoplasmatic enzymes which need ATP for activation. An increase in the GSH concentration leads to an increase in the glutatione-S-transferase activity, a detoxifying enzyme. The stimulation for detoxification by the test substances was tested on human fibroblasts by measurement of the GSH. In a series of tests, fibroblasts were first incubated for 3 days at 37° C. in a nutrient solution and then for 3 days at the same temperature in a test solution. The protein content in the cells was then determined by the Bradford method and the GSH concentration by the Hissin method [cf. Analytical Biochem. 74, 214-226 1977]. The results are set out in Table 2, where they are expressed in %-rel. against a blank sample, and represent the results of 3 series of measurements with triple determination.

Experiment [5] concerns Propionibacterium acnes. As to the kind of experiment: Agar diffusion method, inhibition zones. The format is cell-based. The note with it: filter paper with 20 μl test substance; 18 to 24 h at 37° C., anaerobic. Here is the method:
(§1) The antibacterial activity of the test substances was tested by the diffusion method on agar plates or the agar dilution method. In this method, a round filter paper of defined diameter is first impregnated with the test solution and then applied to the surface of an agar plate inoculated beforehand with the test microorganisms. The size of the inhibition zones is then determined after defined times. In particular, it is possible by this method to determine the MIC (Minimum Inhibitory Concentration) as the lowest concentration of test substance with which complete inhibition of the microorganisms can be obtained.
(§2) Agar diffusion method. The inoculum was prepared using a fresh culture in a stationary growth phase (after ca. 18-24 h) in a BHI solution (brain-heart Infusion). The bacterial suspension was adjusted to 0.5 MacFarland units, corresponding to 1.5 10^8 colony-forming units (cfu)/ml; the suspension was then diluted with a sodium chloride solution (1:100) to adjust a value of 1.5 10^6 cfu/ml. Mueller-Hinton agar (Staphylococcus epidermidis, Staphylococcus aureus) and Wilkins-Chalgrens agar containing 5% by weight sheep's blood (Propionibacterium acnes) were then sterilized for 15 mins. at 121° C. and then placed in Petri dishes. 2 to 4 ml of the bacterial suspension were then added to the Petri dishes, followed by drying at room temperature. The filter papers were impregnated with 20 μl of the test substances and applied to the surface of the agar plates. The inoculated Petri dishes were incubated for 18 to 24 h at 37° C. (the Petri dishes containing Propionibacterium acnes under anaerobic conditions) and the antimicrobial activity was then determined by determination of the growth inhibition zones. The results are set out in Table 10 and represent the diameters of the inhibition zones in mm.
In general terms: Agar diffusion results depend on both activity and mobility in agar.

For experiment [6], the system named is Staphylococcus epidermidis. As to the kind of experiment: Agar diffusion method, inhibition zones. It is filed as cell-based. The note with it: filter paper with 20 μl test substance; 18 to 24 h at 37° C. Here is the method: as §1, §2
In experiment [7] the test system is Staphylococcus aureus. As to the kind of experiment: Agar diffusion method, inhibition zones. The format is cell-based. The conditions noted are these: filter paper with 20 μl test substance; 18 to 24 h at 37° C. Here is the method: as §1, §2
Experiment [8] relates to melanocytes (B16 cell line). As to the kind of experiment: Inhibition of melanin synthesis in B16 melanocytes. The format is cell-based. The note with it: 3 days, blank value = 100. Here is the method: Melanin is the pigment responsible for the color of the skin and hair. It is formed in special organelles, the melanosomes, which occur in the melanocytes of the basal layer of the human epidermis. The biosynthesis of melanin begins with the amino acid tyrosine which is oxidized to DOPA (dihydroxyphenylalanine) in the presence of tyrosinase. The DOPA then polymerizes to melanin. […] After incubation for 3 days at 37° C./5% CO2, the nutrient medium was replaced by a solution containing the test substances in various concentrations. After incubation for another 3 days, the cell protein content (Bradford's method) and the content of synthesized melanin were determined through the optical density of the homogenizate at 475 nm. The results are expressed in % against a blank value and are set out in Table 7.

Experiment [9] deals with Propionibacterium acnes. As to the kind of experiment: Agar dilution method (MIC determination). It is filed as cell-based. The note with it: 18 to 24 h at 37° C. Here is the method:
as §1, with “obtained. Agar dilution method (MIC determination). Various agars were prepared as described above, test substances were added in various concentrations, homogenized and dried. The Petri dishes were then inoculated with quantities of 2 μl of the bacterial suspension. After each drying step the Petri dishes were incubated for 18 to 24 h at 37° C. […] The results represent the averages of double determinations.” for “obtained.”
Background: Agar dilution tests growth on a series of plates holding different concentrations.

For experiment [10], the system named is Staphylococcus epidermidis. Kind of experiment: Agar dilution method (MIC determination). The format is cell-based. The conditions noted are these: 18 to 24 h at 37° C. Here is the method: as §1, with “obtained. Agar dilution method (MIC determination). Various agars were prepared as described above, test substances were added in various concentrations, homogenized and dried. The Petri dishes were then inoculated with quantities of 2 μl of the bacterial suspension. After each drying step the Petri dishes were incubated for 18 to 24 h at 37° C. […] The results represent the averages of double determinations.” for “obtained.”

Experiment [11] deals with Staphylococcus aureus. As to the kind of experiment: Agar dilution method (MIC determination). It is filed as cell-based. The conditions noted are these: 18 to 24 h at 37° C. Here is the method: as §1, with “obtained. Agar dilution method (MIC determination). Various agars were prepared as described above, test substances were added in various concentrations, homogenized and dried. The Petri dishes were then inoculated with quantities of 2 μl of the bacterial suspension. After each drying step the Petri dishes were incubated for 18 to 24 h at 37° C. […] The results represent the averages of double determinations.” for “obtained.”

Regarding Fructose palmitate, the Cell counts in [1] (conc. 0.001 % w/v) was 97 %-rel; in [1] (conc. 0.01 % w/v), 98 %-rel. Further, the values for the ROS released in [1] (conc. 0.001 % w/v) and in experiment [1] (conc. 0.01 % w/v) were 81 %-rel and 42 %-rel, respectively. The Collagenase inhibition in [2] (Conc. [w/v] 0.03) is listed as 4 %-rel; in [2] (Conc. [w/v] 0.1) it was 41 %-rel; in [2] (Conc. [w/v] 0.3) it was 78 %-rel. Further, the “Cell protein content in %” value in the experiment on human keratinocytes (conc. 0.001 % w/v) worked out at 166%; in the experiment with human keratinocytes (conc. 0.003 % w/v), 143%; with human keratinocytes (conc. 0.01 % w/v) it was 105%. Besides, the Cell proteins in the experiment on human fibroblasts [3] (conc. 0.003 % w/v) stood at 91 %-rel. Moreover, the GSH/proteins in the experiment on human fibroblasts [3] (conc. 0.003 % w/v) is listed as 81 %-rel.
Take Trehalose palmitate: the Collagenase inhibition in experiment [2] (Conc. [w/v] 0.3) is reported as 9 %-rel. In the experiment with human fibroblasts [4], this substance returned a GSH/proteins of 125 %-rel. For the same substance, in the experiment with Propionibacterium acnes [5], the “Inhibition zones, Propionibacterium acnes” value was found to be 0 mm. In addition, the “Inhibition zones, Staphylococcus epidermidis” value in experiment [6] turned out to be 11 mm. Besides, in the experiment with Staphylococcus aureus [7], the “Inhibition zones, Staphylococcus aureus” value is 14 mm. Further, in the experiment on human fibroblasts [3] (conc. 0.001 % w/v), the Cell proteins was 124 %-rel and the GSH/proteins stood at 87 %-rel.
With Trehalose stearate, the Cell melanin in experiment [8] (conc. 0.001 % w/v) is given as 81 %-rel; in experiment [8] (conc. 0.003 % w/v), 41 %-rel. The Cell proteins is on record as 97 %-rel in [8] (conc. 0.001 % w/v), 93 %-rel in experiment [8] (conc. 0.003 % w/v) and 124 %-rel with human fibroblasts [3] (conc. 0.001 % w/v). Further, the GSH/proteins with human fibroblasts [4] came to 141 %-rel; in the experiment on human fibroblasts [3] (conc. 0.001 % w/v), 84 %-rel. Further, in the experiment on Propionibacterium acnes [9], the “MIC, Propionibacterium acnes” value came out at 1250 µg/mL. Further, the “MIC, Staphylococcus epidermidis” value in experiment [10] was found to be 625 µg/mL. Moreover, in the experiment on Staphylococcus aureus [11], the “MIC, Staphylococcus aureus” value is more than 10000 µg/mL. The “Inhibition zones, Propionibacterium acnes” value in the experiment on Propionibacterium acnes [5] came out at 0 mm. Moreover, the “Inhibition zones, Staphylococcus epidermidis” value in [6] was found to be 11 mm. Further, in the experiment with Staphylococcus aureus [7], the “Inhibition zones, Staphylococcus aureus” value was 12 mm.
